Measurements published in paper PMC8537711, “Mechanistic Insights into Binding of Ligands with Thiazolidinedione Warhead to Human Histone Deacetylase 4” (Pharmaceuticals, 2021).

Tests used:
cdHDAC4wt [1] = biological target: T1, cdHDAC4wt (Homo sapiens, UniProt P56524); experiment: Association kinetics (semi continuous enzyme activity assay, kobs vs inhibitor concentration); format: biochemical; conditions: for residence time: 1/koff (two step) or 1/k−3 (one step), read-out: RT (KF), residence time from kinetic fit; for forward isomerization rate constant (k2) / koff / kon: two step model; for forward isomerization rate constant (k2) / koff: isomerization rate; for koff: y-axis intercept; for Ki: two step induced fit model, read-out: K1 (equilibrium constant of initial encounter complex)
T1 construct: consists of 410 amino acids (human HDAC4 T648-T1057) and has a molecular weight of 44.2 kDa; His6-SUMO (cleaved yes); made in house; host or cells: E. coli (BL21) DE3 pLysS, pET14b vector
Method: A serial dilution of inhibitor beginning at 10-fold of respective IC50-value in assay buffer (25 mM Tris-HCl, pH 8.0, 75 mM KCl, 0.001% Pluronic F-127) was made in a black 96-well microtiter half-area plate (Greiner, Kremsmuenster, Austria). The dilutions were added to 3 nM cdHDAC4wt. Shortly after, the reaction was initiated by adding 20 µM Boc-Lys{TFA}-7-Amino-4-methylcoumarin (Bachem, Bubendorf, Switzerland) as substrate. […] Finally 0.4 mg/mL trypsin was added to split the deacetylated substrate in the fluorescent product which was measured at 450 nm (λEx = 350 nm) (PherStar Plus, BMG Labtech, Ortenberg, Germany). […] The standardized RFUs were plotted against the incubation time. […] Due to this knowledge the data were fitted via non linear regression with GraphPad Prism program to the following equation by Copeland [27]:(2) Y=νs·t+νi−νs/kobs·(1−e^(−kobs·t))+d where vi is the initial slope, vs is the second lower slope, kobs is the respective rate constant, t is time and d the correction for possible data offset.
Afterwards kobs values were plotted against their respective inhibitor concentration.

cdHDAC4wt [2] = biological target: T1, cdHDAC4wt; experiment: Reversibility assay via rapid dilution; residence time from reversibility data; format: biochemical; conditions: first order dissociation assumed; read-out: RT (RD), residence time from rapid dilution
Method: Rapid dilution was performed by diluting the incubated mixture 100-fold with substrate (Boc-Lys{TFA}-7-Amino-4-methylcoumarin (Bachem, Bubendorf, Switzerland)) with the final substrate concentration being 20 µM. […] A positive control without TZD ligand and a blank without enzyme and TZD ligand were also carried out. […] Once again the final substrate concentration was 20 µM. […] The deacetylated substrate was converted into a fluorescent product by the addition of 0.4 mg/mL trypsin (AppliChem, Darmstadt, Germany). The release of fluorogenic substrate was followed in a microplate reader (PherStar Plus, BMG Labtech, Ortenberg, Germany) at 450 nm (λEx = 350 nm) and correlated the positive control. […] All incubations steps were performed for 60 min at 30 °C and 450 rpm. The substrate was preheated to 30 °C before the rapid dilution step.
The reciprocal values for k equals the residence time of the respective TZD ligand (residence time = koff^−1), which can be compared with the residence times gained from association data.

cdHDAC4wt [3] = biological target: T1, cdHDAC4wt; experiment: Michaelis Menten kinetics for mode of action; format: biochemical; conditions: increasing Km, essentially unchanged vmax with increasing compound concentration
Method: For E677A, F812A, C813S, F871A and H976Y (GoF) 5 nM enzyme were used. […] Signal was developed for 30 min at room temperature and the fluorescence was measured at 450 nm (λEx = 350 nm) in a PherStar Plus (BMG Labtech, Ortenberg, Germany) fluorescence plate reader. […] Afterwards, the product concentration was plotted against the time and v0 (µM/min) was calculated from the resulting slopes. Now the initial velocity was plotted against the substrate concentration and Km was calculated using a Michaelis Menten-Fit in GraphPad Prism. The value of vmax is neglected because enzyme concentration and purity are too inconsistent between the mutant variant to calculate this value appropriate.

[4] = biological target: T2, cdHDAC4wt (catalytic domain of human wild type histone deacetylase 4) (Homo sapiens, UniProt P56524); experiment: IC50 determination, enzyme activity assay with Boc-Lys{TFA}-AMC; format: biochemical; conditions: mean ± SD, N = 3
T2 construct: consists of 410 amino acids (human HDAC4 T648-T1057) and has a molecular weight of 44.2 kDa; His6-SUMO (cleaved yes); made in house; host or cells: E. coli (BL21) DE3 pLysS, pET14b vector
Method: Afterwards the enzymatic reaction was initiated by the addition of 20 µM Boc-Lys{TFA}-7-Amino-4-methylcoumarin (Bachem, Bubendorf, Switzerland) as substrate. […] The deacetylated substrate was converted into a fluorescent product by the addition of 0.4 mg/mL trypsin (AppliChem, Darmstadt, Germany). The release of fluorogenic substrate was followed in a microplate reader (PherStar Plus, BMG Labtech, Ortenberg, Germany) at 450 nm (λEx = 350 nm) and correlated to enzyme activity.
All incubations steps were performed for 60 min at 30 °C and 450 rpm.

cdHDAC4 mutant variants = experiment: Mutational study: Ki (Cheng-Prusoff from IC50) against cdHDAC4 mutant variants relative to wild type; format: biochemical, human; conditions: exchange of S758, D759, E764, T808, F812, F871 and L943
Method: To gain an thorough knowledge of the most involved amino acids necessary for molecular recognition of TZD ligands to cdHDAC4wt, a comprehensive mutational study was designed. Amino acids flanking the active site binding pocket in the closed (Figure 5A) and open (Figure 5B) conformation of the enzyme were systematically exchanged and IC50-values of a subset of 25 TZDs were determined against every mutant variant. Because IC50-values depends on the substrate concentration and the Km of the substrate, the Michaelis Menten parameters were determined first using substrate tert-butyl N-[(2S)-1-[(4-methyl-2-oxochromen-7-yl)amino]-1-oxo-6-[(2,2,2-trifluoroacetyl)amino]hexan-2-yl]carbamate (Boc-Lys{TFA}-AMC) in a semi continuous enzyme activity assay (Figure 5C and Figure S1). IC50-values were transformed into binding constant Ki using the Cheng-Prusoff equation to enable a fair comparison of ligand affinities to the respective HDAC4 variant:(1) IC50=(1+[S]/Km)×Ki
A serial dilution of TZD in assay buffer (25 mM TRIS-HCl, 75 mM KCl, 0.001% Pluronic F-127, pH 8.0) was incubated with 1 nM cdHDAC4wt in a black 96-well microtiter plate (Greiner). […] The release of fluorogenic substrate was followed in a microplate reader (PherStar Plus, BMG Labtech, Ortenberg, Germany) at 450 nm (λEx = 350 nm) and correlated to enzyme activity. […]

T1 sequence (P56524 648-1057): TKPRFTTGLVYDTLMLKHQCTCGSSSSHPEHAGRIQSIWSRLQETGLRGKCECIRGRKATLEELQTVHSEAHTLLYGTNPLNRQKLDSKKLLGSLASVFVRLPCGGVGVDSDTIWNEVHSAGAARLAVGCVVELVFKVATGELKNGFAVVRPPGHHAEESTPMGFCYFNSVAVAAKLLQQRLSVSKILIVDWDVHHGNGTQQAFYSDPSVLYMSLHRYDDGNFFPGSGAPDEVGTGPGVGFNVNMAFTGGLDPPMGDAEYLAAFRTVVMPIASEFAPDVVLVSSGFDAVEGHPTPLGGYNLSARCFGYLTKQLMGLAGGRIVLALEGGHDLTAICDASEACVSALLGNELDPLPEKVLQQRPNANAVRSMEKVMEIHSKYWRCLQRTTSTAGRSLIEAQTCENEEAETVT
T2 sequence (P56524 648-1057): as above

Row | Structure (SMILES) | residence time (cdHDAC4wt [1]) | y-intercept of kobs plot (k−3) (cdHDAC4wt [1]; linear regression, one step model) | k3 (cdHDAC4wt [1]; one step model, slope of kobs vs ligand concentration) | k−3 (cdHDAC4wt [1]; one step model, y-intercept) | residence time (cdHDAC4wt [2]) | mode of inhibition (cdHDAC4wt [3]) | IC50 [4] | forward isomerization rate constant (k2) (cdHDAC4wt [1]) | koff (cdHDAC4wt [1]) | Ki (cdHDAC4wt [1]) | kon (cdHDAC4wt [1]) | log10Ki ratio (Ki mutant / Ki wildtype) (cdHDAC4 mutant variants)
1 | O=C(COc1ccc(/C=C2\SC(=O)NC2=O)cn1)Nc1nc2ccccc2s1 [5w] | 19 ± 7 min | (8 ± 3) × 10^−4 s^−1 | 1900 ± 100 M⁻¹ s⁻¹ | 0.08 ± 0.03 s^−1 (×10^−2) | 12 ± 3 min | competitive inhibitor |  |  |  |  |  | 
2 | O=C1NC(=O)/C(=C/c2ccc3cc(OCC(=O)N4N=C(c5ccccc5)CC4c4ccccc4F)ccc3c2)S1 (stereo not shown) [8b] | 11 ± 3 min |  |  |  | 29 ± 3 min |  | 0.33 ± 0.02 µM | 0.003 ± 0.0006 s⁻¹ | 0.0015 ± 0.0004 s⁻¹ | 0.65 ± 0.47 µM |  | 
3 | O=C1NC(=O)/C(=C/c2ccc3cc(OCC(=O)N4N=C(c5ccccc5)CC4c4ccco4)ccc3c2)S1 (stereo not shown) [8c] | 12 ± 6 min |  |  |  | 12 ± 1 min |  | 1.2 ± 0.1 µM | 0.0021 ± 0.0009 s⁻¹ | 0.0014 ± 0.0007 s⁻¹ |  | (2.1 ± 0.9) × 10^−3 s^−1 | 
4 | Cc1ccc(C2CC(c3ccccc3)=NN2C(=O)COc2ccc3cc(/C=C4\SC(=O)NC4=O)ccc3c2)cc1 (stereo not shown) [8g] | 10 ± 2 min |  |  |  | 18 ± 7 min |  | 0.76 ± 0.08 µM | 0.0038 ± 0.0007 s⁻¹ | 0.0016 ± 0.0003 s⁻¹ | 3 ± 2 µM |  | 
5 | O=C1NC(=O)/C(=C/c2ccc3cc(OCC(=O)N4N=C(c5ccccc5)CC4c4cccs4)ccc3c2)S1 (stereo not shown) [8i] | 14 ± 4 min |  |  |  | 13 ± 8 min |  | 0.34 ± 0.04 µM | 0.0054 ± 0.0005 s⁻¹ | 0.0012 ± 0.0003 s⁻¹ | 0.65 ± 0.31 µM | (5.4 ± 0.5) × 10^−3 s^−1 | 
6 | O=C1NC(=O)/C(=C/c2ccc(OCC(=O)N3N=C(c4ccc(F)cc4)CC3c3ccc(Cl)c(Cl)c3)cc2)S1 (stereo not shown) [12j] | 9 ± 3 min |  |  |  | 11 ± 5 min |  | 0.83 ± 0.02 µM | 0.0031 ± 0.0007 s⁻¹ | 0.0018 ± 0.0005 s⁻¹ |  |  | 
7 | O=C1NC(=O)/C(=C/c2ccc3cc(OCC(=O)N4N=C(c5ccc(F)cc5)CC4c4ccco4)ccc3c2)S1 (stereo not shown) [16c] |  |  |  |  | 21 ± 7 min |  | 1.4 ± 0.2 µM | 0.0035 ± 0.0018 s⁻¹ |  |  |  | 
8 | Cc1ccc(C2CC(c3ccc(F)cc3)=NN2C(=O)COc2ccc3cc(/C=C4\SC(=O)NC4=O)ccc3c2)cc1 (stereo not shown) [16g] |  |  |  |  | 15 ± 2 min |  | 0.46 ± 0.06 µM | 0.0051 ± 0.0011 s⁻¹ |  |  |  | 
9 | CC(/C=C/C(=O)NO)=C\[C@@H](C)C(=O)c1ccc(N(C)C)cc1 [TSA, Trichostatin A] |  |  |  |  |  |  |  |  |  |  |  | above 1
